The structures appear in SMILES notation.

Chain of Human PKK (P03952 391-638): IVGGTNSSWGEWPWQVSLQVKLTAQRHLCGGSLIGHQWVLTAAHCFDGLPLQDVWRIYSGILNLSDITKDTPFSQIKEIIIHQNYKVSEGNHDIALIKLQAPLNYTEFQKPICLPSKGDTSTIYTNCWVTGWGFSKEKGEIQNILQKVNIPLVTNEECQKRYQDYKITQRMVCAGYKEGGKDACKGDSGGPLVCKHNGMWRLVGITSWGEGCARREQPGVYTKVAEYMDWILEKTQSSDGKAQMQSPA
Chain of Human PKK (P03952 20-390 partner): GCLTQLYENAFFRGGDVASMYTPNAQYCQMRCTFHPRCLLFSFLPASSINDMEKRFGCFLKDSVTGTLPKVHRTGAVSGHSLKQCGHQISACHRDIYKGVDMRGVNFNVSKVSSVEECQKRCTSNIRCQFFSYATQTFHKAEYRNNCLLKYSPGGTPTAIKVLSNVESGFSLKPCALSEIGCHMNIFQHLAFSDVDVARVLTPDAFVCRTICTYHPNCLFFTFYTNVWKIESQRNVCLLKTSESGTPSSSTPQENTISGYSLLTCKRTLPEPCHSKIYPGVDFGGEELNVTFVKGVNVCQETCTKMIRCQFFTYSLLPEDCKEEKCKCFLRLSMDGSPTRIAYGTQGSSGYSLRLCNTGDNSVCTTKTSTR

The target in the experiment is Human PKK (Homo sapiens (Human), UniProt P03952). The experiment can be described thus: Inhibition of PKK using an endpoint assay (human PKK). Format: biochemical. As to conditions: 1 h at rt, 0.10 μM H-Pro-Phe-Arg-AMC. On the procedure: The ability of compounds of formula (I) to inhibit plasma kallikrein (PKK), Factor XIIa (FXIIa), Factor XIa (FXIa), Factor Xa (FXa), Factor IIa (alpha-thrombin; FIIa), plasmin, trypsin, tissue kallikrein 1 (TK1), Factor Vila (FVIIa), or FVIIa complexed with Tissue Factor, phospholipids and CaCl2) (FVIIa/TF/PL/CaCl2) was determined using the following biochemical assays in assay buffer (100 mM Tris, 150 mM NaCL, adjusted to a pH of 7.8 with HCl, and containing 0.1% (w/v) BSA and 0.05% (v/v) Tween20) in the presence of 1% (v/v) DMSO:
Subsequently, PPACK II (Calbiochem) was added as a stop solution to achieve a final concentration of 1 μM and fluorescence was measured using an Envision Reader (PerkinElmer) with the wavelength excitation setting of 355 nm and the wavelength emission setting of 460 nm. The number of the compound corresponds to the number of the Example in the experimental section.
One may read the IC50 as the concentration that gives 50% inhibition. High values mean weaker potency, low ones greater potency. `Cc1nc(N2CC3(CC3)C2)ccc1Cn1cc(C(=O)NCc2c(-n3cnnn3)ccc(Cl)c2F)c(C)n1` [Example 28]: the IC50 worked out at 14 nM.
`Cc1nc(N2CCCC3(CC3)C2)ccc1Cn1cc(C(=O)NCc2cc(Cl)ccc2-n2cnnn2)cn1` [Example 72, 1-[(6-{5-azaspiro[2.5]octan-5-yl}-2-methylpyridin-3-yl)methyl]-N-{[5-chloro-2-(1H-1,2,3,4-tetrazol-1-yl)phenyl]methyl}-1H-pyrazole-4-carboxamide] registered an IC50 of 74 nM.
The figure for `Cc1nc(N2CC3CC3C2)ccc1Cn1cc(C(=O)NCc2c(-n3cnnn3)ccc(Cl)c2F)c(Cl)n1` (stereo not drawn) [Example 7] is 0.8 nM.
The compound `Cc1nc(N2CC3OCC(N)C3C2)ccc1Cn1cc(C(=O)NCc2cc(Cl)ccc2-n2cnnn2)cn1` (stereo not drawn) [Example 70, 1-[(6-{3-amino-hexahydro-2H-furo[2,3-c]pyrrol-5-yl}-2-methylpyridin-3-yl)methyl]-N-{[5-chloro-2-(1H-1,2,3,4-tetrazol-1-yl)phenyl]methyl}-1H-pyrazole-4-carboxamide] yielded a concentration for half-maximal inhibition (IC50) of 845 nM.
For `COCc1nn(Cc2cnc(N3CC4CC4C3)nc2C)cc1C(=O)NCc1c(-n2cnnn2)ccc(Cl)c1F` (stereo not drawn) [Example 35] the value was 1 nM; for `Cc1nc(N2CC3(CC3)C2)ncc1Cn1cc(C(=O)NCc2cc(Cl)ccc2-n2cnnn2)c(C)n1` [Example 37], 2 nM; for `Cc1nc(N2CC3(CCCO3)C2)ccc1Cn1cc(C(=O)NCc2cc(Cl)ccc2-n2cnnn2)cn1` [Example 69, N-{[5-chloro-2-(1H-1,2,3,4-tetrazol-1-yl)phenyl]methyl}-1-[(2-methyl-6-{5-oxa-2-azaspiro[3.4]octan-2-yl}pyridin-3-yl)methyl]-1H-pyrazole-4-carboxamide], 5 nM.
For `Cc1nc(N2CC3CC2C3)ccc1Cn1cc(C(=O)NCc2cc(Cl)ccc2-n2cnnn2)cn1` [Example 67, 1-[(6-{2-azabicyclo[2.1.1]hexan-2-yl}-2-methylpyridin-3-yl)methyl]-N-{[5-chloro-2-(1H-1,2,3,4-tetrazol-1-yl)phenyl]methyl}-1H-pyrazole-4-carboxamide] the value was 10 nM; for `Cc1nc(N2CC3(C2)CN(C(C)C)C3)ccc1Cn1cc(C(=O)NCc2cc(Cl)ccc2-n2cnnn2)cn1` [Example 79, N-{[5-chloro-2-(1H-1,2,3,4-tetrazol-1-yl)phenyl]methyl}-1-({2-methyl-6-[6-(propan-2-yl)-2,6-diazaspiro[3.3]heptan-2-yl]pyridin-3-yl}methyl)-1H-pyrazole-4-carboxamide], 1060 nM; for `Cc1nc(N2CC3C(C2)C3(F)F)ccc1Cn1cc(C(=O)NCc2cc(Cl)ccc2-n2cnnn2)c(C)n1` (stereo not drawn) [Example 18], 1 nM.
The figure for `Cc1nc(N2C[C@@H]3[C@@H](C)[C@@H]3C2)ccc1Cn1cc(C(=O)NCc2cc(Cl)ccc2-n2cnnn2)cn1` [Example 86] is 7 nM.
Regarding `Cc1nc(N2CC3CC3C2)ccc1Cn1cc(C(=O)NCc2cc(Cl)ccc2-n2cnnn2)c2cccnc21` (stereo not drawn) [Example 50], the midpoint of inhibition, the IC50, lay at 9 nM.
For `Cc1nc(N2CC3CC3C2)ccc1Cn1cc(C(=O)NCc2c(-n3cnnn3)ccc(Cl)c2F)c(C(F)F)n1` (stereo not drawn) [Example 10] the value was 0.5 nM; for `Cc1nc(N2CC3CC3C2)ncc1Cn1cc(C(=O)NCc2cc(Cl)ccc2-n2cnnn2)c2cncnc21` (stereo not drawn) [Example 27], 3 nM; for `Cc1nc(N2CC3CCCC3C2)ccc1Cn1cc(C(=O)NCc2cc(Cl)ccc2-n2cnnn2)cn1` (stereo not drawn) [Example 73, N-{[5-chloro-2-(1H-1,2,3,4-tetrazol-1-yl)phenyl]methyl}-1-[(2-methyl-6-{octahydrocyclopenta[c]pyrrol-2-yl}pyridin-3-yl)methyl]-1H-pyrazole-4-carboxamide], 9 nM.
The figure for `COC[C@H]1[C@H]2CN(c3ccc(Cn4cc(C(=O)NCc5cc(Cl)ccc5-n5cnnn5)cn4)c(C)n3)C[C@@H]12` [Example 55] is 3 nM.
The figure for `Cc1nc(N2CCC3(CCCO3)C2)ccc1Cn1cc(C(=O)NCc2cc(Cl)ccc2-n2cnnn2)cn1` (stereo not drawn) [Example 76, N-{[5-chloro-2-(1H-1,2,3,4-tetrazol-1-yl)phenyl]methyl}-1-[(2-methyl-6-{1-oxa-7-azaspiro[4.4]nonan-7-yl}pyridin-3-yl)methyl]-1H-pyrazole-4-carboxamide] is 3 nM; for `Cc1nc(N2CC3CC3C2)ncc1Cn1cc(C(=O)NCc2c(-n3cnnn3)ccc(Cl)c2F)c(C)n1` (stereo not drawn) [Example 30] it is 0.8 nM.
Compound `Cc1nc(N2CC3CC3C2)ccc1Cn1cc(C(=O)NCc2cc(Cl)ccc2-n2cnnn2)c(C)n1` (stereo not drawn) [Example 19] registered a half-inhibitory concentration (IC50) of 0.7 nM.
Take `Cc1nc(N2CC3(CC3)C2)ncc1Cn1cc(C(=O)NCc2cc(Cl)ccc2-n2cnnn2)cn1` [Example 39]: the IC50 amounted to 3 nM.
On to `Cc1nc(N2CC3(CC(O)C3)C2)ccc1Cn1cc(C(=O)NCc2cc(Cl)ccc2-n2cnnn2)cn1` [Example 64, N-{[5-chloro-2-(1H-1,2,3,4-tetrazol-1-yl)phenyl]methyl}-1-[(6-{6-hydroxy-2-azaspiro[3.3]heptan-2-yl}-2-methylpyridin-3-yl)methyl]-1H-pyrazole-4-carboxamide], for which the IC50 came to 225 nM.
For `COCc1nn(Cc2ccc(N3CC4(CC4)C3)nc2C)cc1C(=O)NCc1cc(Cl)ccc1-n1cnnn1` [Example 25] the value was 1 nM.
The figure for `Cc1nc(N2CC3CC3C2)ccc1Cn1cc(C(=O)NCc2c(-n3cnnn3)ccc(Cl)c2F)c(C)n1` (stereo not drawn) [Example 20] is 0.4 nM.
For `Cc1nc(N2C[C@@H]3C[C@]3(N)C2)ccc1Cn1cc(C(=O)NCc2cc(Cl)ccc2-n2cnnn2)cn1` [Example 88, 1-({6-[(1R,5S)-1-amino-3-azabicyclo[3.1.0]hexan-3-yl]-2-methylpyridin-3-yl}methyl)-N-{[5-chloro-2-(1H-1,2,3,4-tetrazol-1-yl)phenyl]methyl}-1H-pyrazole-4-carboxamide] the value was 127 nM; for `Cc1nc(N2CC3CC(C2)C3O)ccc1Cn1cc(C(=O)NCc2cc(Cl)ccc2-n2cnnn2)cn1` (stereo not drawn) [Example 68, N-{[5-chloro-2-(1H-1,2,3,4-tetrazol-1-yl)phenyl]methyl}-1-[(6-{6-hydroxy-3-azabicyclo[3.1.1]heptan-3-yl}-2-methylpyridin-3-yl)methyl]-1H-pyrazole-4-carboxamide], 4 nM; for `Cc1nc(N2CC3C(C2)C3(F)F)ncc1Cn1cc(C(=O)NCc2c(-n3cnnn3)ccc(Cl)c2F)c2cncnc21` (stereo not drawn) [Example 23], 1 nM.
`Cc1nc(N2CC3CC3C2)ccc1Cn1cc(C(=O)NCc2c(-n3cnnn3)ccc(Cl)c2F)c(-c2cnn(C)c2)n1` (stereo not drawn) [Example 43]: half-maximal inhibition (IC50) required 0.4 nM.
In turn, `Cc1nc(N2CC3(CC3)C2)ncc1Cn1cc(C(=O)NCc2c(-n3cnnn3)ccc(Cl)c2F)cn1` [Example 40] yielded an IC50 of 0.5 nM.
The figure for `Cc1nc(N2CCC3(COC3)C2)ccc1Cn1cc(C(=O)NCc2cc(Cl)ccc2-n2cnnn2)cn1` [Example 61, N-{[5-chloro-2-(1H-1,2,3,4-tetrazol-1-yl)phenyl]methyl}-1-[(2-methyl-6-{2-oxa-6-azaspiro[3.4]octan-6-yl}pyridin-3-yl)methyl]-1H-pyrazole-4-carboxamide] is 12 nM; for `COCc1nn(Cc2ccc(N3CC4C(C3)C4(F)F)nc2C)cc1C(=O)NCc1c(-n2cnnn2)ccc(Cl)c1F` (stereo not drawn) [Example 11] it is 0.6 nM.
`Cc1nc(N2CC3(CC3)C2)ccc1Cn1cc(C(=O)NCc2cc(Cl)ccc2-n2cnnn2)c(C)n1` [Example 29] came in with an IC50 of 2 nM.
The figure for `Cc1nc(N2C[C@@H]3[C@@H](O)[C@@H]3C2)ccc1Cn1cc(C(=O)NCc2cc(Cl)ccc2-n2cnnn2)cn1` [Example 56] is 6 nM.
For `Cc1nc(N2C[C@@H]3CNC(=O)[C@@H]3C2)ccc1Cn1cc(C(=O)NCc2cc(Cl)ccc2-n2cnnn2)cn1` [Example 62, 1-({6-[(3aS,6aS)-4-oxo-octahydropyrrolo[3,4-c]pyrrol-2-yl]-2-methylpyridin-3-yl}methyl)-N-{[5-chloro-2-(1H-1,2,3,4-tetrazol-1-yl)phenyl]methyl}-1H-pyrazole-4-carboxamide] the value was 3 nM; for `Cc1nc(N2CC[C@@]3(N)C[C@H]3C2)ccc1Cn1cc(C(=O)NCc2cc(Cl)ccc2-n2cnnn2)cn1` [Example 89, 1-({6-[(1S,6S)-6-amino-3-azabicyclo[4.1.0]heptan-3-yl]-2-methylpyridin-3-yl}methyl)-N-{[5-chloro-2-(1H-1,2,3,4-tetrazol-1-yl)phenyl]methyl}-1H-pyrazole-4-carboxamide], 61 nM.
For `Cc1nc(N2CC3(CCCN3)C2)ccc1Cn1cc(C(=O)NCc2cc(Cl)ccc2-n2cnnn2)cn1` [Example 91, N-{[5-chloro-2-(1H-1,2,3,4-tetrazol-1-yl)phenyl]methyl}-1-[(6-{2,5-diazaspiro[3.4]octan-2-yl}-2-methylpyridin-3-yl)methyl]-1H-pyrazole-4-carboxamide] the value was 122 nM.
`Cc1nc(N2CC3C(C2)C3(F)F)ccc1Cn1cc(C(=O)NCc2c(-n3cnnn3)ccc(Cl)c2F)c(C)n1` (stereo not drawn) [Example 17]: the IC50 is 0.4 nM.
For `COCc1nn(Cc2cnc(N3CC4CC4C3)nc2C)cc1C(=O)NCc1cc(Cl)ccc1-n1cnnn1` (stereo not drawn) [Example 36] the value was 5 nM; for `Cc1nc(N2CC3C(C2)C3(F)F)ccc1Cn1cc(C(=O)NCc2cc(Cl)ccc2-n2cnnn2)c2cncnc21` (stereo not drawn) [Example 8], 1 nM; for `Cc1nc(N2CC3C(C2)C3(F)F)ncc1Cn1cc(C(=O)NCc2c(-n3cnnn3)ccc(Cl)c2F)c(C)n1` (stereo not drawn) [Example 33], 0.8 nM.

These data come from patent US12091399B2, “Phenyltetrazole derivatives as plasma kallikrein inhibitors” (Boehringer Ingelheim International GmbH, priority 2018, dated 2024).
